Assay results published in patent US6444617B1, “Fused-heterocycle dicarboxylic acid diamide derivatives or salts thereof, herbicide and usage thereof” (Nihon Nohyaku Co., Ltd., priority 1998, dated 2002).

Legend:
Type in all cases: in vivo
[1] = tested on: forxtail grass (Alopecurus aequalis var. amurensis Ohwi), Am; test: Test Example 4: herbicidal effect on upland weeds after emergence; conditions: dosage 5 kg/ha; sprayed after emergence; judged 14 days after treatment
In short: (§1)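 Weeds and soybean grown in soil-filled vats to set leaf stages, then sprayed post-emergence with the compound at a prescribed concentration. Weed-killing rate and crop phytotoxicity judged 14 days after treatment.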

[2] = tested on: barnyard grass (Echinochloa crus-galli Beauv.), Ec; test: as above; conditions: dosage 5 kg/ha; sprayed after emergence; judged 14 days after treatment
In short: as §1

[3] = tested on: velvetleaf (Abutilon theophtasti L.), At; test: as above; conditions: dosage 5 kg/ha; sprayed after emergence; judged 14 days after treatment
In short: as §1

[4] = tested on: cocklebur (Xanthium strumarium L.), Xs; test: as above; conditions: dosage 5 kg/ha; sprayed after emergence; judged 14 days after treatment
In short: as §1

[5] = tested on: cleavers (Galium aparine L.), Ga; test: as above; conditions: dosage 5 kg/ha; sprayed after emergence; judged 14 days after treatment
In short: as §1

[6] = tested on: bird's eye speedwell (Veronica persica Poir.), Vp; test: as above; conditions: dosage 5 kg/ha; sprayed after emergence; judged 14 days after treatment
In short: as §1

[7] = tested on: bulrush (Scirpus juncoides Roxb.); test: Test Example 2: herbicidal effect on paddy field weeds after emergence; conditions: Dosage 5 kg/ha; one-leaved stage; 21 days after treatment
In short: (§2)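 Weeds in flooded paddy-soil pots were grown to the one-leaved stage, then the soil was treated with the compound solution at a set dosage.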

[8] = tested on: monochoria (Monochoria vaginalis Presl); test: as above; conditions: Dosage 5 kg/ha; one-leaved stage; 21 days after treatment
In short: as §2

[9] = tested on: barnyard grass (Echinochloa crus-galli Beauv.); test: as above; conditions: Dosage 5 kg/ha; one-leaved stage; 21 days after treatment
In short: as §2

wheat (Wh) = test: Test Example 3: phytotoxicity to upland crop plants, treatment before emergence; conditions: dosage 5 kg/ha
In short: (§3)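 Pre-emergence spray of a liquid preparation at a prescribed compound concentration. Soybean and wheat injury was scored against a phytotoxicity criterion 14 days after treatment, alongside weed control.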

soybean plant (So) = test: as above; conditions: dosage 5 kg/ha
In short: as §3

[10] = tested on: bulrush (Scirpus juncoides Roxb.); test: Test Example 1: herbicidal effect on paddy field weeds before emergence; conditions: Dosage 5 kg/ha
In short: (§4)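 Grading reflects percent control relative to untreated plots, evaluated three weeks post-application. Treatment was a soil application of compound solution, predetermined dose, made to paddy-state pots before weed seeds germinated.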

[11] = tested on: barnyard grass (Echinochloa crus-galli Beauv.); test: as above; conditions: Dosage 5 kg/ha
In short: as §4

wheat = test: Test Example 4: phytotoxicity to upland crop plants, treatment after emergence; conditions: dosage 5 kg/ha, sprayed after emergence, judged 14 days after treatment
In short: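 Scores of weed-killing rate, with crop phytotoxicity, come from inspection 14 days after plants in soil vats, grown to specified leaf stages, are sprayed with a formulation holding the compound at a prescribed concentration.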

soybean plant = test: as above; conditions: dosage 5 kg/ha, sprayed after emergence, judged 14 days after treatment
In short: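 Post-emergence foliar spray, compound at prescribed concentration, applied at defined leaf stages; weeds plus soybean/wheat grown in soil vats. Read-out: weed-killing rate and crop injury, 14 d post-treatment.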

[12] = tested on: forxtail grass (Alopecurus aequalis var. amurensis Ohwi), Am; test: Test Example 3: herbicidal effect on upland weeds before emergence; conditions: foxtail grass, dosage 5 kg/ha
In short: (§5)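 Steps: sow upland weed seeds; spray liquid formulation of active ingredient at prescribed concentration prior to emergence; after 14 days, calculate weed-killing rate; judge herbicidal effect.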

[13] = tested on: barnyard grass (Echinochloa crus-galli Beauv.), Ec; test: as above; conditions: dosage 5 kg/ha
In short: as §5

[14] = tested on: velvetleaf (Abutilon theophtasti L.), At; test: as above; conditions: dosage 5 kg/ha
In short: as §5

[15] = tested on: cocklebur (Xanthium strumarium L.), Xs; test: as above; conditions: dosage 5 kg/ha
In short: as §5

[16] = tested on: cleavers (Galium aparine L.), Ga; test: as above; conditions: dosage 5 kg/ha
In short: as §5

[17] = tested on: bird's eye speedwell (Veronica persica Poir.), Vp; test: as above; conditions: dosage 5 kg/ha
In short: as §5

Structure (SMILES)	Herbicidal effect Am [1]	Herbicidal effect Ec [2]	Herbicidal effect At [3]	Herbicidal effect Xs [4]	Herbicidal effect Ga [5]	Herbicidal effect Vp [6]	Post-emergence treatment Bulrush (herbicidal effect) [7]	Post-emergence treatment Monochoria (herbicidal effect) [8]	Post-emergence treatment Barnyard grass (herbicidal effect) [9]	Phytotoxicity Wh (wheat (Wh))	Phytotoxicity So (soybean plant (So))	Pre-emergence treatment Bulrush (herbicidal effect) [10]	Pre-emergence treatment Barnyard grass (herbicidal effect) [11]	Phytotoxicity Wh (wheat)	Phytotoxicity So (soybean plant)	Herbicidal effect Am [12]	Herbicidal effect Ec [13]	Herbicidal effect At [14]	Herbicidal effect Xs [15]	Herbicidal effect Ga [16]	other results
CCc1ccc(Cl)c(CC)c1NC(=O)c1nc2ccccc2nc1C(=O)NCC(C)(C)C [compound 1314]	5 (Weed-killing rate is 100%.)	5 (Weed-killing rate is 100%.)	5 (Weed-killing rate is 100%.)	4 (Weed-killing rate is 90-99%.)	4 (Weed-killing rate is 90-99%.)	5 (Weed-killing rate is 100%.)	4 (Weed-killing rate is 90-99%.)	5 (Weed-killing rate is 100%.)	4 (Weed-killing rate is 90-99%.)	4 (Crop-killing rate is 90-99%.)	3 (Crop-killing rate is 70-89%.)	5 (Weed-killing rate is 100%.)	5 (Weed-killing rate is 100%.)	4 (Crop-killing rate is 90-99%.)	4 (Crop-killing rate is 90-99%.)	5 (Weed-killing rate is 100%.)	5 (Weed-killing rate is 100%.)	5 (Weed-killing rate is 100%.)	4 (Weed-killing rate is 90-99%.)	4 (Weed-killing rate is 90-99%.)	Herbicidal effect Vp [17]: 5 (Weed-killing rate is 100%.)
CCc1ccc(Cl)c(CC)c1NC(=O)c1nc2ccccc2nc1C(=O)NC1CCCC1 [compound 1315]	5 (Weed-killing rate is 100%.)	5 (Weed-killing rate is 100%.)	5 (Weed-killing rate is 100%.)	5 (Weed-killing rate is 100%.)	5 (Weed-killing rate is 100%.)	5 (Weed-killing rate is 100%.)	5 (Weed-killing rate is 100%.)	5 (Weed-killing rate is 100%.)	5 (Weed-killing rate is 100%.)	5 (Crop-killing rate is 100%.)	5 (Crop-killing rate is 100%.)	5 (Weed-killing rate is 100%.)	5 (Weed-killing rate is 100%.)	5 (Crop-killing rate is 100%.)	5 (Crop-killing rate is 100%.)	5 (Weed-killing rate is 100%.)	5 (Weed-killing rate is 100%.)	5 (Weed-killing rate is 100%.)	5 (Weed-killing rate is 100%.)	5 (Weed-killing rate is 100%.)	Herbicidal effect Vp [17]: 5 (Weed-killing rate is 100%.)
CCCNC(=O)c1nc2ccccc2nc1C(=O)Nc1cccc(Cl)c1C [compound 1318]	5 (Weed-killing rate is 100%.)	5 (Weed-killing rate is 100%.)	5 (Weed-killing rate is 100%.)	4 (Weed-killing rate is 90-99%.)	5 (Weed-killing rate is 100%.)	5 (Weed-killing rate is 100%.)	4 (Weed-killing rate is 90-99%.)	5 (Weed-killing rate is 100%.)	4 (Weed-killing rate is 90-99%.)	5 (Crop-killing rate is 100%.)	3 (Crop-killing rate is 70-89%.)	4 (Weed-killing rate is 90-99%.)	5 (Weed-killing rate is 100%.)	4 (Crop-killing rate is 90-99%.)	3 (Crop-killing rate is 70-89%.)	5 (Weed-killing rate is 100%.)	5 (Weed-killing rate is 100%.)	5 (Weed-killing rate is 100%.)	4 (Weed-killing rate is 90-99%.)	4 (Weed-killing rate is 90-99%.)	Herbicidal effect Vp [17]: 5 (Weed-killing rate is 100%.)
Cc1c(Cl)cccc1NC(=O)c1nc2ccccc2nc1C(=O)NC1CCCC1 [compound 1327]	5 (Weed-killing rate is 100%.)	5 (Weed-killing rate is 100%.)	5 (Weed-killing rate is 100%.)	4 (Weed-killing rate is 90-99%.)	5 (Weed-killing rate is 100%.)	5 (Weed-killing rate is 100%.)	4 (Weed-killing rate is 90-99%.)	5 (Weed-killing rate is 100%.)	4 (Weed-killing rate is 90-99%.)	5 (Crop-killing rate is 100%.)	3 (Crop-killing rate is 70-89%.)	4 (Weed-killing rate is 90-99%.)	5 (Weed-killing rate is 100%.)	4 (Crop-killing rate is 90-99%.)	3 (Crop-killing rate is 70-89%.)	5 (Weed-killing rate is 100%.)	5 (Weed-killing rate is 100%.)	5 (Weed-killing rate is 100%.)	4 (Weed-killing rate is 90-99%.)	4 (Weed-killing rate is 90-99%.)	Herbicidal effect Vp [17]: 5 (Weed-killing rate is 100%.)
